This is an account of results in patent US20060252116A1, “Icam-4 binding sites” (priority 2002, published 2006).

Ends that are not written are not given here.

Common to all, as to format: cell-based
In experiment [1] the test system is HEL cell binding to murine ICAM-4Fc. In words: Cell adhesion assay: peptide inhibition of HEL cell binding to murine ICAM-4Fc. As to conditions: FIG. 12, murine ICAM-4Fc coated at 5 μg/ml, peptides 500 μM each, mean of two assays. As for the experimental part: (§1) Cell adhesion assays were performed as described in Spring et al. 2001 (supra). Immulon4 96 well plates (Dynex Technologies, Billingshurst, United Kingdom) were coated with 1 μg/well goat-antihuman-Fc (Sigma, Poole, United Kingdom) for 24 hours at 4° C., washed three times with PBS and coated with an Fc fusion ICAM-4 protein for 18 hours at 4° C. before blocking with 0.4% BSA PBS for 2 hours at 22° C. Cells were labelled with 10 μg/ml 2′,7′-bis-(2-carboxyethyl)-5-(and-6-) carboxyfluorescein acetoxymethyl ester in assay buffer (IMEM, 2 mM EGTA, 10 μg/ml human ivIgG) for 15 minutes at 37° C. HT1080 cells were activated with 80 μM phorbol myristate acetate prior to both cells being washed with assay buffer containing 2 mM Mn^2+. Cells, at 5×10^4 cells per well, were added to the ICAM-4Fc-coated plates for 30 minutes at 37° C., prior to being given repeated washes in assay buffer and read on a fluorescence microplate reader (excitation 485 nm, emission 530 nm). The percentage of bound cells was calculated after each wash. Peptide inhibition was performed by incubating the cells with 500 μM peptide at 0° C. for 15 minutes ahead of their addition, still in the presence of 500 μM peptide to the ICAM-4Fc coated plates. In peptide inhibition studies the appropriate ICAM-4Fc coating concentration for each cell line was pre-determined by titration of ICAM-4Fc and the lowest concentration at which maximal binding was achieved was used to coat the plates

For experiment [2], the system named is HEL cell binding to human ICAM-4Fc. The experiment is described as follows: Cell adhesion assay: peptide inhibition of HEL cell binding to human ICAM-4Fc. As to conditions: for input cells bound expressed as a percentage of binding to ICAM-4Fc in the absence of peptides: FIG. 8, human ICAM-4Fc coated at 5 μg/ml, peptides 500 μM each, mean of three assays; for input cells bound expressed as a percentage of binding to human ICAM-4Fc in the absence of peptides: FIG. 16, human ICAM-4Fc coated at 2.5 μg/ml, peptides 750 μM each, EDTA 2 mM, mean of two assays. The procedure: as §1, with “Peptide inhibition was performed by incubating the cells with 500 μM peptide at 0° C. for 15 minutes ahead of their addition, still in the presence of 500 μM peptide to the ICAM-4Fc coated plates.” left out

The test system of experiment [3] is HT1080 cell binding to human ICAM-4Fc. In words: Cell adhesion assay: peptide inhibition of HT1080 cell binding to human ICAM-4Fc. As for the experimental part:
as §1, with “Peptide inhibition was performed by incubating the cells with 500 μM peptide at 0° C. for 15 minutes ahead of their addition, still in the presence of 500 μM peptide to the ICAM-4Fc coated plates.” left out

Experiment [4] concerns HT1080 cell binding to murine ICAM-4Fc. The experiment is described as follows: Cell adhesion assay: peptide inhibition of HT1080 cell binding to murine ICAM-4Fc. The settings on record: FIG. 14, murine ICAM-4Fc coated at 5 μg/ml, peptides 500 μM each, mean of two assays. As for the experimental part:
as §1, with “Peptide inhibition was performed by incubating the cells with 500 μM peptide at 0° C. for 15 minutes ahead of their addition, still in the presence of 500 μM peptide to the ICAM-4Fc coated plates.” left out

In experiment [5] the test system is erythroblast adhesion to ICAM-4. In words: Peptide inhibition of erythroblast adhesion to ICAM-4. As to conditions: FIG. 19; 5 μg/ml ICAM-4; 5 μg/ml TS2/16 beta 1 activating antibody; peptides 500 μM. As for the experimental part: We have utilised the blocking ICAM-4 peptides (i.e., SEQ ID NOs: 9, 10, 11 and 13—see Example 1) in order to inhibit the adhesion of day 4 erythroblasts to ICAM-4 (see FIG. 19). Erythroblast cultures were initiated from CD34 positive cells purified from pooled buffy coat residues (obtained from the National Blood Service, Bristol, UK) and maintained as described in Southcott et al. (1999, Blood 93: 4425-4435). Cell adhesion assays were performed as described in Example 1 above. Immulon-4 96 well plates (Dynes Technologies, Billingshurst, UK) were coated with 1 μg/well goat-antihuman-Fc (Sigma, Poole, UK) for 24 hours at 4° C., washed three times with PBS and coated with 0.25 μg/well Fc fusion ICAM-4 protein (ICAM-4Fc) for 18 hours at 4° C. before blocking with 0.4% BSA PBS for 2 hours at 22° C. Erythroblasts were labelled with 10 μg/ml 2′,7′-bis-(2-carboxyethyl)-5-(and-6-)carboxyfluorescein acetoxymethyl ester (Sigma, Poole, UK) in assay buffer (Iscoves modified Eagle medium, 2 mM EGTA, 0.1% BSA, 10 μg/ml Immune globulin intravenous (human) (Cutter Biological, Newbury, Berks, UK)) for 15 minutes at 37° C. Erythroblasts were washed with assay buffer containing 2 mM Mn^2+. Erythroblasts, at 5×10^4 cells per well, were added to the ICAM-4Fc-coated plates for 30 minutes at 37° C., prior to being cyclically read on a fluorescence microplate reader (excitation 485 nm, emission 530 nm) and washed in assay buffer. The percentage of bound cells was calculated after each wash Peptide inhibition was performed by incubating the cells with 500 μM peptide and 5 μg/ml TS2/16 (beta 1 activating antibody (IBGRL) at 0° C. for 15 minutes before their addition to the ICAM-4Fc coated plates.

The subject of experiment [6] is neutrophil adhesion to ICAM-4. The experiment is described as follows: Peptide and antibody inhibition of neutrophil adhesion to ICAM-4. The settings on record: FIG. 20; 2.5 μg/ml ICAM-4; 10 μg/ml blocking antibodies; peptides 500 μM. As for the experimental part: Utilising blocking β integrin subunit antibodies and our blocking ICAM-4 peptides (i.e., SEQ ID NOs: 9, 10, 11 and 13—see Example 1) in a microplate neutrophil adhesion assay. Neutrophils were purified from buffy coats (obtained from the National Blood Service, Bristol, UK) as described in Henderson et al. (1987, Biochem. J. 246: 325-329). Cell adhesion assays were performed as described in Example 1 above. Immulon-4 96 well plates (Dynes Technologies, Billingshurst, UK) were coated with 1 μg/well protein A (Sigma, Poole, UK) for 24 hours at 4° C., washed three times with PBS and coated with 0.125 μg/well Fc fusion ICAM-4 protein (ICAM-4Fc) for 18 hours at 4° C. before blocking with 0.4% BSA PBS for 2 hours at 22° C. Neutrophils were labelled with 10 μg/ml 2′,7′-bis-(2-carboxyethyl)-5-(and-6-)carboxyfluorescein acetoxymethyl ester (Sigma, Poole, UK) in assay buffer (Iscoves modified Eagle medium, 2 mM EGTA, 0.1% BSA for 15 minutes at 37° C. Neutrophils were washed with assay buffer containing 2 mM Mn^2+. Neutrophils, at 5×10^5 cells per well, were added to the ICAM-4Fc-coated plates for 10 minutes at 37° C., prior to being cyclically read on a fluorescence microplate reader (excitation 485 nm, emission 530 nm) and washed in assay buffer. The percentage of bound cells was calculated after each wash. […]

Regarding `O=C(O)CN(CCN(CC(=O)O)CC(=O)O)CC(=O)O` [EDTA, reference compound], the “input cells bound expressed as a percentage of binding to murine ICAM-4Fc in the absence of peptides” value amounted to 8% in experiment [1] and 1% in experiment [4]. In addition, the “input cells bound expressed as a percentage of binding to ICAM-4Fc in the absence of peptides” value in experiment [2] came to 1%. Further, the “input cells bound expressed as a percentage of binding to human ICAM-4Fc in the absence of peptides” value in experiment [2] is given as 26%; in experiment [3] (FIG. 18, human ICAM-4Fc coated at 5 μg/ml, peptides 750 μM each, EDTA 2 mM, mean of two assays), 10%. For the same molecule, the “input cells bound expressed as a percentage of binding to human ICAM4Fc in the absence of peptides” value in experiment [3] (FIG. 10, human ICAM-4Fc coated at 7.5 μg/ml, peptides 500 μM each, mean of three assays) is on record as 6%.
Consider “aWssLahcl (AWSSLAHCL; not fully specified (some residues)) [aWssLahcl peptide]”, for which the “input cells bound expressed as a percentage of binding to human ICAM-4Fc in the absence of peptides” value in experiment [2] turned out to be 50%. For the same molecule, in experiment [5], the “effect on adhesion of day 4 erythroblasts to ICAM-4” value (shortened to “effect on adhesion … to ICAM-4”) is given as “inhibit adhesion”. The “effect on adhesion between neutrophils and ICAM-4” value in experiment [6] is reported as “inhibit this interaction”.
As to “rqgktlrgp (RQGKTLRGP; not fully specified (some residues); printed as rqgktlrgp) [rqgktlrgp peptide, reference compound]”, the “input cells bound expressed as a percentage of binding to murine ICAM-4Fc in the absence of peptides” value in experiment [1] amounted to 94%. In experiment [2], the “input cells bound expressed as a percentage of binding to ICAM-4Fc in the absence of peptides” value was 107% and the “input cells bound expressed as a percentage of binding to human ICAM-4Fc in the absence of peptides” value was determined as 105%. For the same molecule, the “effect on adhesion … to ICAM-4” value in experiment [5] is recorded as “had no effect”.
With “svpFWVrms (SVPFWVRMS; not fully specified (residues 1, 2, 3, 7, 8, 9)) [svpFWVrms peptide]”, the “input cells bound expressed as a percentage of binding to murine ICAM-4Fc in the absence of peptides” value in experiment [1] was found to be 67%. Besides, in experiment [2], the “input cells bound expressed as a percentage of binding to ICAM-4Fc in the absence of peptides” value is reported as 61% and the “input cells bound expressed as a percentage of binding to human ICAM-4Fc in the absence of peptides” value was found to be 64%. Moreover, the “effect on adhesion … to ICAM-4” value in experiment [5] was “had no effect”.
Take “tRwATSRit (TRWATSRIT; not fully specified (residues 1, 3, 8, 9)) [tRwATSRit peptide]”: the “input cells bound expressed as a percentage of binding to murine ICAM-4Fc in the absence of peptides” value in experiment [1] was 58%. Besides, in experiment [2], the “input cells bound expressed as a percentage of binding to ICAM-4Fc in the absence of peptides” value stood at 58% and the “input cells bound expressed as a percentage of binding to human ICAM-4Fc in the absence of peptides” value was 58%. The “effect on adhesion … to ICAM-4” value in experiment [5] is listed as “inhibit adhesion”. Besides, the “effect on adhesion between neutrophils and ICAM-4” value in experiment [6] was “inhibit this interaction”.
